The source made the active and inactive calls.
How the values were obtained:
cells = format: functional, cell-based
[1] = target: T1, Nuclear receptor subfamily 0 group B member 1 (Homo sapiens, UniProt P51843); format: functional, cell-based;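 also: HEK293T cells transfected with SF-1 and DAX-1 plus StAR promoter luciferase reporter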
T1 sequence (P51843 whole entry): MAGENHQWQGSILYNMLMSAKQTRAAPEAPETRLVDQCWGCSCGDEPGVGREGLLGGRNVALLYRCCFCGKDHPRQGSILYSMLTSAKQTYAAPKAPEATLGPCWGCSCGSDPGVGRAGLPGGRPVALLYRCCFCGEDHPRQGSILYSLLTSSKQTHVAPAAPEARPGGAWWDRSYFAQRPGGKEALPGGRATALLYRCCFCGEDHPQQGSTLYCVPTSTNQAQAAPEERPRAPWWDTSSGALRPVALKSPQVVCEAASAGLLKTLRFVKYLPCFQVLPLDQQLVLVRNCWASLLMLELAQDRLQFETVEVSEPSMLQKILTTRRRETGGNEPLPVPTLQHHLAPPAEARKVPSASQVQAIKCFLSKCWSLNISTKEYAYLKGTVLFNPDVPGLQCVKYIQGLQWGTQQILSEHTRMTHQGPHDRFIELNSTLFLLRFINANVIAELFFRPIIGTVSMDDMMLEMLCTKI

[2] = target: Adenosylmethionine-8-amino-7-oxononanoate aminotransferase (Mycobacterium tuberculosis, UniProt P9WQ81); assay: Mycobacterium tuberculosis BioA enzyme inhibitor Measured in Biochemical System Using Plate Reader - 2163-02_Inhibitor_Dose_CherryPick_Activity.; format: functional, Mycobacterium tuberculosis UT205
BJ [3] = assay: BJ-TERT fibroblast viability loss – cell-based, RAS-independent, luminescence, dose response (AID 1933); format: functional; details: Homo sapiens
BJ [4] = assay: cells; format: functional, cell-based; details: Homo sapiens
BJ [5] = assay: BJ-TERT-LT-ST fibroblast viability loss – cell-based, RAS-independent, luminescence, dose response (AID 1935); format: functional; details: Homo sapiens;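 also: BJ fibroblasts immortalized with TERT plus LT and ST oncogenes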
[6] = DRD fibroblast viability loss – cell-based, non-viral oncogenic, luminescence, dose response (AID 1934); format: functional; details: Homo sapiens
[7] = Luminescence Cell-Based Dose Retest to Confirm Inhibitors of Cancer Stem Cells. [Related pubchem assays (depositor defined):AID2717, AID2721]; format: functional; details: Homo sapiens
BJ [8] = assay: growth inhibition of engineered Ras-driven BJ cells – cell-based, alamar blue fluorescence, cherrypicked samples, dose response (AID 2631); format: functional; details: Homo sapiens;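 also: confirmatory dose-response assay in RAS-dependent BJ fibroblasts engineered with TERT, LT and ST, with cytotoxicity read by fluorescence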
[9] = target: T2, Corticotropin-releasing factor receptor 2/Corticotropin-releasing factor-binding protein (Homo sapiens, UniProt P24387+Q13324); assay: Dose Response confirmation of uHTS hits for small molecule antagonists of the CRF-binding protein and CRF-R2 receptor complex.; format: functional; details: read-out: IC50_Mean
T2 sequence (Q13324 whole entry): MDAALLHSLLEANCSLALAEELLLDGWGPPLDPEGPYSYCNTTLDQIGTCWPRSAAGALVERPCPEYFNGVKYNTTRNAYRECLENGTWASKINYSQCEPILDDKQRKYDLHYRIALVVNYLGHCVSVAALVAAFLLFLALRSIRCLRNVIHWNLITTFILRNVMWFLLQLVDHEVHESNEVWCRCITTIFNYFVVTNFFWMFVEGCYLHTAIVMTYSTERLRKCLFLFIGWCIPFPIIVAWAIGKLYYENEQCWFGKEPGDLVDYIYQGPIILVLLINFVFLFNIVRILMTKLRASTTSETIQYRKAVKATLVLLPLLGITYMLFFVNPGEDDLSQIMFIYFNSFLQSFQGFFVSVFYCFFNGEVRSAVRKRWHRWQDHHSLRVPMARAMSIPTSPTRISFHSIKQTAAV
T2 sequence (P24387 whole entry): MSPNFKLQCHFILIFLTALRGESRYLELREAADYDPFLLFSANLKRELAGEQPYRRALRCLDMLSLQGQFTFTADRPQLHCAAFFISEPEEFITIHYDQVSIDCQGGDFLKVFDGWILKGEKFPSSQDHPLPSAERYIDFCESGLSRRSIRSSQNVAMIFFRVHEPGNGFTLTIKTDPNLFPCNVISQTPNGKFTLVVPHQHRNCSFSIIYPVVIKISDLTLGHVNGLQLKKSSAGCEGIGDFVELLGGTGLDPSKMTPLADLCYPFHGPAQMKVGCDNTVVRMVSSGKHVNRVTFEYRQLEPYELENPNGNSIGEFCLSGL

[10] = target: T2, Corticotropin-releasing factor receptor 2/Corticotropin-releasing factor-binding protein; assay: activators of CRF receptor 2 with binding protein – uHTS hits, confirmation (AID 602473); format: functional; details: read-out: EC50_Mean
[11] = blockers of CRF-binding protein–CRF-R2 complex – cell-based, uHTS hits, 384-well, dose response (AID 651639); format: functional, Homo sapiens; details: read-out: IC50_Mean
[12] = target: T3, Testis-specific serine/threonine-protein kinase 2 (Homo sapiens, UniProt Q96PF2); format: functional;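 also: part of the Navigating the Kinome panel, target entry STK22B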
T3 sequence (Q96PF2 whole entry): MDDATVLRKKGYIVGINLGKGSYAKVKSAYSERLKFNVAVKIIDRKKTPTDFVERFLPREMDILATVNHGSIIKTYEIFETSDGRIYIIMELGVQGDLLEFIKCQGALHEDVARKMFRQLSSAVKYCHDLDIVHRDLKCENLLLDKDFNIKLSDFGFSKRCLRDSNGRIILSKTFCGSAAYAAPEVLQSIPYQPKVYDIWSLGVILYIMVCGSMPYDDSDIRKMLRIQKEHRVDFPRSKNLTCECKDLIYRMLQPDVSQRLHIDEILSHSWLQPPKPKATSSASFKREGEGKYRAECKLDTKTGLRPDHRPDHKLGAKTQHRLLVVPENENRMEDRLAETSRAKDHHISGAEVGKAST

[13] = target: T4, Tyrosine-protein kinase JAK3 (Homo sapiens, UniProt P52333); format: functional
T4 sequence (P52333 whole entry): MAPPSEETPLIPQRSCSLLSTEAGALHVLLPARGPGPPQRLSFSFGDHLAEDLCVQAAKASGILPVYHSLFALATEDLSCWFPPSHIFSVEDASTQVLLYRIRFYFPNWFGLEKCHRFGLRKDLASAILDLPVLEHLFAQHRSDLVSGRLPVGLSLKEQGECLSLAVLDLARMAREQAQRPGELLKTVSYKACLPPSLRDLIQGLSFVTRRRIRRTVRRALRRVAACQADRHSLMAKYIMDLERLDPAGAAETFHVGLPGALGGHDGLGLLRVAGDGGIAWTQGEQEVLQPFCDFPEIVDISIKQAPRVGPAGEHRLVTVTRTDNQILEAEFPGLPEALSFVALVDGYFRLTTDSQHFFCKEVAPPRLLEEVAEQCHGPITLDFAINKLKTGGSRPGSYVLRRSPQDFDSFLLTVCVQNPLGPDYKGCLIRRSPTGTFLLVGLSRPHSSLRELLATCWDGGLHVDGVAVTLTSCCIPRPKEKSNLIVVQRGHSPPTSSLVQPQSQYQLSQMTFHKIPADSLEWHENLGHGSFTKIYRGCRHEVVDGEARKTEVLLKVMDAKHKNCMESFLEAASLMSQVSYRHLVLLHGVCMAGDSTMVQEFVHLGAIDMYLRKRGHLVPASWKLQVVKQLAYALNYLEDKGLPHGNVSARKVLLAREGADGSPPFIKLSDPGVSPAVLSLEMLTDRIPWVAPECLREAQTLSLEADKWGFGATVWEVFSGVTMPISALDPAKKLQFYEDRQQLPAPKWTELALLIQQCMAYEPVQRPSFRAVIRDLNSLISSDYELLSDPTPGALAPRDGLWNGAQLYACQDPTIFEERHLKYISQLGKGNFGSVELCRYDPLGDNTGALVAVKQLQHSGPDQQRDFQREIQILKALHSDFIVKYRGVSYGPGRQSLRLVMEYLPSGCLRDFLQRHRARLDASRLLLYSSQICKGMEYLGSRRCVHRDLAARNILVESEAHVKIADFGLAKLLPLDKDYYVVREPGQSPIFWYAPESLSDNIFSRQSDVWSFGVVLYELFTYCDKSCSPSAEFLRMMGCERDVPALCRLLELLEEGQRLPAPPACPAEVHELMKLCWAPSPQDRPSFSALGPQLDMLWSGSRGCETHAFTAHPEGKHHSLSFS

[14] = target: T5, Apoptotic protease-activating factor 1 (Homo sapiens, UniProt O14727); format: functional
T5 sequence (O14727 whole entry): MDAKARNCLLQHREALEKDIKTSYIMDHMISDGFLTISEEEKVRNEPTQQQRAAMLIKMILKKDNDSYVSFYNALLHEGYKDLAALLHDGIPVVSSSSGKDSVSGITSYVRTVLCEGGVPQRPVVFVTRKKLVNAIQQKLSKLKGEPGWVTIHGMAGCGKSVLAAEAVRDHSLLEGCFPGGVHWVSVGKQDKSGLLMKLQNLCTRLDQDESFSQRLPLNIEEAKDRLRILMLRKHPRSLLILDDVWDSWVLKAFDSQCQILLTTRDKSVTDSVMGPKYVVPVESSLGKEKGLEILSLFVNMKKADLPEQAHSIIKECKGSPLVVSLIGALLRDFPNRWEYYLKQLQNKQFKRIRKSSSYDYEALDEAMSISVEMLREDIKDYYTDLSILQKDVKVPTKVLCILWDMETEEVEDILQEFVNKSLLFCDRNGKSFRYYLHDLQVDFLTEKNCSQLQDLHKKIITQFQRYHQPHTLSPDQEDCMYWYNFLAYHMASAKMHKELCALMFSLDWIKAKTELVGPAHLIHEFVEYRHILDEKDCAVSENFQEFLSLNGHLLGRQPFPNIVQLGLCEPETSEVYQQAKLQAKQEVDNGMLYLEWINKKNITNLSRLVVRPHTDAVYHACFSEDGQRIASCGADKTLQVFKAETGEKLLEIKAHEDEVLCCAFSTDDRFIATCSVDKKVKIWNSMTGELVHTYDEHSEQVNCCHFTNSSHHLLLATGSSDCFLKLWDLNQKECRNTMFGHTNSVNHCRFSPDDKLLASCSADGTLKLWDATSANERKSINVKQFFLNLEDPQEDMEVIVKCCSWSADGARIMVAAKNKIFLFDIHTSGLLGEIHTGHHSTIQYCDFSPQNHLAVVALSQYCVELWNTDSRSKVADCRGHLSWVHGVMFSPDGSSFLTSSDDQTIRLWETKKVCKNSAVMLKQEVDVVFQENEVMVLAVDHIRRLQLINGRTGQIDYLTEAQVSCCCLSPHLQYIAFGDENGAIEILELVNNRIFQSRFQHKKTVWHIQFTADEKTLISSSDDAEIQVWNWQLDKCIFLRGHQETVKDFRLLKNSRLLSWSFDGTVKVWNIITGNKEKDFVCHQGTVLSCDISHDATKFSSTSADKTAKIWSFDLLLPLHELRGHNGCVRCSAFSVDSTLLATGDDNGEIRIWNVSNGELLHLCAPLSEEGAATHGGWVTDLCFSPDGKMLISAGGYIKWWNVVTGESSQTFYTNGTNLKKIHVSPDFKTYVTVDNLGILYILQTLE

INS1 = assay: INS-1E survival protection against cytokine death – cell-based, luminescence, retest, dose response (AID 449756); format: functional; details: Rattus norvegicus;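 also: cell death triggered by IL-1 beta plus TNF-alpha plus IFN-gamma mixture; protective hits raise ATP signal compared with cytokine alone wells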

Adenosylmethionine-8-amino-7-oxononanoate aminotransferase, sequence (P9WQ81 whole entry): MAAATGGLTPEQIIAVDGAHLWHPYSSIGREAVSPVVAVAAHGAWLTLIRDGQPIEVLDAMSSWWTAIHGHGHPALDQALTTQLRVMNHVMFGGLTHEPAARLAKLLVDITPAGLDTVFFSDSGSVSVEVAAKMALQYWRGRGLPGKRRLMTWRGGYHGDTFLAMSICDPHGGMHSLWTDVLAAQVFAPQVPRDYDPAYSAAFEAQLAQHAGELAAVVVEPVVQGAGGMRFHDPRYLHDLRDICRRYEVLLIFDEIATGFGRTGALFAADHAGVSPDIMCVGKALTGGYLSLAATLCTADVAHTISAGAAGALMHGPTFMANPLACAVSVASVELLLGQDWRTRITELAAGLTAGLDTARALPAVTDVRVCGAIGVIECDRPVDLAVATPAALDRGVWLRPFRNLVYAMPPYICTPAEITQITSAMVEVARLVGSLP

With `COc1ccc(C(=O)Nc2nnc(SCC(=O)NC3CCCC3)s2)c(OC)c1` the IC50 (cells) was > 67.5 µM (inactive) and the IC50 [1] was > 0.0926 µM (active).
For `COc1ccc(C(=O)C2CCCN(C(=O)c3ccc(C(C)=O)s3)C2)c(C)c1` (stereo not given), the AC50 [2] was 1.7 µM (active).
In the case of `CN[C@H]1CCc2cc(OC)c(OC)c(OC)c2-c2ccc(N(C)CC(OC)OC)c(=O)cc21`, the EC50 (BJ [3]) is reported as 3.42 µM (active), the EC50 (BJ [4]) is reported as 21.4 µM (active) and the EC50 (BJ [5]) is reported as 2.98 µM (inconclusive). For the same compound, the EC50 [6] was 2.86 µM (active), the AC50 [7] was 1.86 µM (active) and the EC50 (BJ [8]) was 0.578 µM (inconclusive).
For `Cc1cccc(NC(=O)c2cccc([N+](=O)[O-])c2O)c1C`, the IC50 [9] was 5.93 µM (active), the EC50 [10] was > 53 µM (inactive) and the IC50 [11] was > 20 µM (inactive).
With `CCCOC(=O)c1cccc(NC(=O)c2cccnc2)c1` the AC50 [2] was 6.09 µM (active).
With `Cc1[nH]nc2ccc(-c3cncc(OCC(N)Cc4ccccc4)c3)cc12` (stereo not given) the Ki [12] was > 1.58 µM (inactive) and the Ki [13] was > 1.58 µM (inactive).
With `CCCCCn1cc[n+](C2=C([N-]S(=O)(=O)c3ccc(Cl)cc3)C(=O)c3ccccc3C2=O)c1` the IC50 [14] was 30.2 µM (active) and the AC50 (INS1) was 3.09 µM (active).
With `CC1(C)CC(=O)C(C2C3=C(CC(C)(C)CC3=O)Oc3ccc4ccccc4c32)C(=O)C1` (stereo not given) the IC50 [9] was 14.8 µM (active), the EC50 [10] was 31.8 µM (active) and the IC50 [11] was > 20 µM (inactive).

From ChEMBL document CHEMBL1201862, “PubChem BioAssay data set” (2004)
